Assay results taken from ChEMBL document CHEMBL1201862, “PubChem BioAssay data set” (2004).
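Where inhibition never reached the appropriate level, the endpoint shown equals the highest concentration tested. Otherwise, values were interpolated linearly from a five-concentration, 48-hour dose response in 96-well plates. At the GI50, growth is halved.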 The source made the active and inactive calls. Rule as the data show it: active = GI50 up to about 1.1 µM and inactive = higher.

How the values were obtained:
Assay in all cases: NCI anticancer screen, dose series, 48 h
HCT-116 = system: HCT-116
SF-539 = system: SF-539
UACC-257 = system: UACC-257
U-251 = system: U-251
RPMI-8226 = system: RPMI-8226
NCI/ADR-RES = system: NCI/ADR-RES
SNB-75 = system: SNB-75
MCF7 = system: MCF7
HCT-15 = system: HCT-15
MDA-N = system: MDA-N
SNB-19 = system: SNB-19
NCI-H460 = system: NCI-H460
SN12C = system: SN12C
SF-295 = system: SF-295
T47D = system: T47D
HCC 2998 = system: HCC 2998
SW-620 = system: SW-620
PC-3 = system: PC-3
CCRF-CEM = system: CCRF-CEM
MOLT-4 = system: MOLT-4
A498 = system: A498
KM12 = system: KM12
MDA-MB-435 = system: MDA-MB-435
MDA-MB-231 = system: MDA-MB-231
UO-31 = system: UO-31
SK-MEL-5 = system: SK-MEL-5
ACHN = system: ACHN
SK-MEL-2 = system: SK-MEL-2
BT-549 = system: BT-549
LOX IMVI = system: LOX IMVI
COLO 205 = system: COLO 205
IGROV-1 = system: IGROV-1
HOP-62 = system: HOP-62
SR = system: SR
NCI-H23 = system: NCI-H23
TK-10 = system: TK-10
OVCAR-4 = system: OVCAR-4
UACC-62 = system: UACC-62
OVCAR-3 = system: OVCAR-3
Hs-578T = system: Hs-578T
M14 = system: M14
SK-OV-3 = system: SK-OV-3
OVCAR-5 = system: OVCAR-5
786-0 = system: 786-0
K562 = system: K562
EKVX = system: EKVX
NCI-H226 = system: NCI-H226
HT-29 = system: HT-29
Malme-3M = system: Malme-3M
SK-MEL-28 = system: SK-MEL-28
SF-268 = system: SF-268
A549 = system: A549
HL-60 = system: HL-60
NCI-H522 = system: NCI-H522
HOP-92 = system: HOP-92
OVCAR-8 = system: OVCAR-8
CAKI-1 = system: CAKI-1
RXF 393 = system: RXF 393
DU-145 = system: DU-145

SMILES: COC(=O)/C=C/c1cnc2c(c1)oc(=O)n2CCc1ccccn1
- GI50 (HCT-116): > 100 µM (inactive)
- GI50 (SF-539): > 100 µM (inactive)
- GI50 (UACC-257): > 100 µM (inactive)
- GI50 (U-251): > 100 µM (inactive)
- GI50 (RPMI-8226): > 100 µM (inactive)
- GI50 (NCI/ADR-RES): 40.1 µM (inactive)
- GI50 (SNB-75): > 100 µM (inactive)
- GI50 (MCF7): > 100 µM (inactive)
- GI50 (HCT-15): > 100 µM
- GI50 (MDA-N): 23.8 µM (inactive)
- GI50 (SNB-19): > 100 µM (inactive)
- GI50 (NCI-H460): > 100 µM (inactive)
- GI50 (SN12C): > 100 µM (inactive)
- GI50 (SF-295): > 100 µM (inactive)
- GI50 (T47D): 50.6 µM (inactive)
- GI50 (HCC 2998): > 100 µM (inactive)
- GI50 (SW-620): 92 µM (inactive)
- GI50 (PC-3): 90.2 µM (inactive)
- GI50 (CCRF-CEM): 31.6 µM (inactive)
- GI50 (MOLT-4): > 100 µM (inactive)
- GI50 (A498): 0.773 µM (active)
- GI50 (KM12): > 100 µM (inactive)
- GI50 (MDA-MB-435): 20.8 µM (inactive)
- GI50 (MDA-MB-231): > 100 µM (inactive)
- GI50 (UO-31): > 100 µM (inactive)
- GI50 (SK-MEL-5): 59.6 µM (inactive)
- GI50 (ACHN): > 100 µM (inactive)
- GI50 (SK-MEL-2): > 100 µM (inactive)
- GI50 (BT-549): 42.8 µM (inactive)
- GI50 (LOX IMVI): > 100 µM (inactive)
- GI50 (COLO 205): > 100 µM (inactive)
- GI50 (IGROV-1): > 100 µM (inactive)
- GI50 (HOP-62): > 100 µM (inactive)
- GI50 (SR): 30.8 µM (inactive)
- GI50 (NCI-H23): > 100 µM (inactive)
- GI50 (TK-10): > 100 µM (inactive)
- GI50 (OVCAR-4): > 100 µM (inactive)
- GI50 (UACC-62): > 100 µM (inactive)
- GI50 (OVCAR-3): > 100 µM (inactive)
- GI50 (Hs-578T): > 100 µM (inactive)
- GI50 (M14): > 100 µM (inactive)
- GI50 (SK-OV-3): > 100 µM (inactive)
- GI50 (OVCAR-5): > 100 µM (inactive)
- GI50 (786-0): > 100 µM (inactive)
- GI50 (K562): 73.3 µM (inactive)
- GI50 (EKVX): > 100 µM (inactive)
- GI50 (NCI-H226): 17.2 µM (inactive)
- GI50 (HT-29): > 100 µM (inactive)
- GI50 (Malme-3M): > 100 µM (inactive)
- GI50 (SK-MEL-28): > 100 µM (inactive)
- GI50 (SF-268): > 100 µM (inactive)
- GI50 (A549): > 100 µM (inactive)
- GI50 (HL-60): 1.35 µM (inactive)

SMILES: COC(=O)Nc1nc2ccc(S(=O)(=O)SC)cc2[nH]1
- GI50 (HCT-116): 4.68 µM (inactive)
- GI50 (SF-539): 4 µM (inactive)
- GI50 (UACC-257): 10.8 µM (inactive)
- GI50 (U-251): 5.51 µM (inactive)
- GI50 (RPMI-8226): 3.84 µM (inactive)
- GI50 (NCI/ADR-RES): 3.61 µM (inactive)
- GI50 (MCF7): 4.94 µM (inactive)
- GI50 (HCT-15): 3.89 µM
- GI50 (SNB-19): 7.55 µM (inactive)
- GI50 (NCI-H460): 5.2 µM (inactive)
- GI50 (SN12C): 10.9 µM (inactive)
- GI50 (SF-295): 7.8 µM (inactive)
- GI50 (T47D): 9.55 µM (inactive)
- GI50 (HCC 2998): 10.4 µM (inactive)
- GI50 (SW-620): 3.73 µM (inactive)
- GI50 (NCI-H522): 4.33 µM (inactive)
- GI50 (PC-3): 4.42 µM (inactive)
- GI50 (CCRF-CEM): 3.52 µM (inactive)
- GI50 (MOLT-4): 2.89 µM (inactive)
- GI50 (HOP-92): 6.35 µM (inactive)
- GI50 (A498): 16.3 µM (inactive)
- GI50 (KM12): 5.45 µM (inactive)
- GI50 (MDA-MB-435): 2.69 µM (inactive)
- GI50 (MDA-MB-231): 11.6 µM (inactive)
- GI50 (SK-MEL-5): 5.28 µM (inactive)
- GI50 (ACHN): 10.2 µM (inactive)
- GI50 (SK-MEL-2): 7.19 µM (inactive)
- GI50 (BT-549): 10.1 µM (inactive)
- GI50 (LOX IMVI): 4.78 µM (inactive)
- GI50 (OVCAR-8): 5.13 µM (inactive)
- GI50 (COLO 205): 4.28 µM (inactive)
- GI50 (IGROV-1): 3.37 µM (inactive)
- GI50 (HOP-62): 21.1 µM (inactive)
- GI50 (SR): 3.72 µM (inactive)
- GI50 (TK-10): 8.09 µM (inactive)
- GI50 (OVCAR-4): 11.9 µM (inactive)
- GI50 (CAKI-1): 4.88 µM (inactive)
- GI50 (RXF 393): 5.46 µM (inactive)
- GI50 (UACC-62): 3.9 µM (inactive)
- GI50 (OVCAR-3): 4.86 µM (inactive)
- GI50 (Hs-578T): 20.5 µM (inactive)
- GI50 (M14): 3.4 µM (inactive)
- GI50 (SK-OV-3): 8.39 µM (inactive)
- GI50 (DU-145): 6.05 µM (inactive)
- GI50 (OVCAR-5): 11.6 µM (inactive)
- GI50 (786-0): 5.09 µM (inactive)
- GI50 (K562): 4.86 µM (inactive)
- GI50 (EKVX): 8.69 µM (inactive)
- GI50 (NCI-H226): 6.27 µM (inactive)
- GI50 (HT-29): 3.28 µM (inactive)
- GI50 (Malme-3M): 9.89 µM (inactive)
- GI50 (SK-MEL-28): 8.28 µM (inactive)
- GI50 (SF-268): 16.5 µM (inactive)
- GI50 (A549): 8.11 µM (inactive)
- GI50 (HL-60): 2.38 µM (inactive)
